Experimental data as given in US9458102B2 (priority 2011, dated 2016).
Where two headings read alike, the source gives them in different places.

What was measured:
[1] = target: T1, Butyrylcholinesterase purified from human blood serum (Homo sapiens, UniProt P06276); test: In vitro hydrolysis by serum cholinesterase (butyrylcholinesterase); assay type: in vitro ADME; conditions: for hydrolysis product after incubation with butyrylcholinesterase: 24-hour incubation
T1 construct: Butyrylcholinesterase purified from human blood serum; purchased Sigma; host or cells: purified from human blood serum
Experimental: Compound 1 is rapidly hydrolyzed by butyrylcholinesterase in the bloodstream. Butyrylcholinesterase purified from human blood serum was used to test the resistance of the disclosed compounds to hydrolysis.
All enzymatic assays were performed with 50 μM compound in 0.1M phosphate buffer, pH 7.4, at 37° C. with stirring, unless otherwise noted. Butyrylcholinesterase stock solutions from human serum (Sigma, St. Louis, Mo.) were prepared at 100 U/mL in 0.1 M phosphate buffer, pH 7.4, and stored at −20° C. until use. Hydrolysis was monitored on an 8452A diode array spectrophotometer (Hewlett-Packard). Product peak wavelength absorption was immediately monitored upon addition of compound. Absorbances for complete hydrolysis were determined when there were no further detectable changes. […] All hydrolysis assays were performed in triplicate, and final rate constants are expressed as the mean±SD of the three individually determined rate constants. In some experiments with compound 1, samples were taken at the beginning and end of the assay to verify the hydrolysis product and the completion of the reaction by HPLC. These samples were compared to compounds 1 and 3 on a C18 column eluted with 0.1% TFA in water/acetonitrile. Activity of chymotrypsin (bovine, Worthington Biochemical Co., 190 μg/mL) was verified with 90 μM 4-nitrophenyl acetate in 0.1 M HEPES solution, pH 6.5, at 37° C. with stirring. Hydrolysis product was monitored at 404 nm for 10 min. Activity of proteinase K (from Engyodontium album, Sigma, 165 μg/mL) was verified with 16.5 mg/mL bovine serum albumin in 0.1 M phosphate buffer, pH 7.4, at 37° C. Samples were taken at time point increments up to 2 hours when the reaction reached completion. Samples were analyzed with 12% SDS-PAGE, stained with 0.1% Coomassie Blue.

[2] = target: heteromeric rod CNG channels consisting of CNGA1 and CNGB1 subunits (Bos taurus, UniProt Q00194+Q28181); test: biochemical; assay type: cell-based; conditions: 2 mM cGMP; for voltage dependence of block: +50 vs −50 mV
Experimental: Currents were elicited by a voltage step protocol from 0 to −50 to +50 mV (See FIG. 1) in the presence of 2 mM cGMP or 2 mM cGMP and compound (5 μM). Time scale is shown in the lower left-hand corner of the panel and FIG. 1, and the zero current level is indicated by the dotted line.
The solid line indicates the fit of the equation for block at a single binding site.
Time scale is shown in the lower left-hand corner of the panel and FIG. 1, and the zero current level is indicated by the dotted line. […] Solid line indicates the fit of the equation for block at a single binding site.
The effectiveness of retinal rod CNG channel current block by the disclosed compounds was tested in Xenopus oocyte preparations. Excised, inside-out patches pulled from oocytes expressed heteromeric rod CNG channels consisting of CNGA1 and CNGB1 subunits. […] CNG channel currents were elicited by a voltage step protocol to −50 and +50 mV (FIG. 1). The apparent KD value at each membrane potential was estimated first by determining I+B and I−B at steady state, where I+B is the current in the presence of blocker and I−B is current in the absence of blocker, for different blocker concentrations ([B]).
Ovaries were surgically removed from adult Xenopus laevis females (Xenopus Express; Brooksville, Fla.) anesthetized with ice-cold 0.1% tricaine and 0.1% NaHCO3 solution. Oocytes were chemically released from ovarian follicles in Ca^2+-free Barth's solution (88 mM NaCl, 1 mM KCl, 2.4 mM NaHCO3, 0.82 mM MgSO4, 7.5 mM Tris, 2.5 mM sodium pyruvate, 100 U/mL penicillin, and 100 μg/mL streptomycin, pH 7.4) containing 0.1 U/mL Liberase Blendzymes (Roche, Indianapolis, Ind.). Stages IV and V oocytes were visually sorted and stored in ND-96 (96 mM NaCl, 2 mM KCl, 1.8 mM CaCl2, 1 mM MgCl2, 5 mM HEPES, 2.5 mM sodium pyruvate, 100 U/mL penicillin, and 100 μg/mL streptomycin, pH 7.4) at 16° C. Oocytes were co-injected the following day with 33 ng of CNGA1 and 67 ng of CNGB1 cRNA […] synthesized from linearized pGEM-HE expression vectors containing the channel subunit cDNA sequence (Strassmaier T & Karpen J, J Med Chem 50, 4186-4194, (2007), incorporated by reference herein) using T7 mMESSAGE mMACHINE® (Ambion, Austin, Tex.). Injected oocytes were incubated at 18° C. the first day and 16° C. for the remaining days.
Recordings from inside-out excised patches were made 3-7 days after oocyte injection on an Axopatch 1D® amplifier (Axon Instruments, Foster City, Calif.). Briefly, oocyte vitelline membranes were removed in solution containing 200 mM K aspartate, 20 mM KCl, 1 mM MgCl2, 10 mM EGTA, 10 mM HEPES, pH 7.4. Oocytes were placed in a recording chamber in a solution containing 130 mM NaCl, 2 mM HEPES, 0.02 mM EDTA, 1 mM EGTA, pH 7.6, and borosilicate glass electrodes (1-3 MΩ) were filled with identical solution. Macroscopic currents were filtered at 1 kHz and sampled at 2 kHz using pCLAMP 8.0® software (Axon Instruments). Channels were either fully activated with 2 mM or partially activated with 50 and 100 μM cGMP. […] Glass syringes and Teflon tubing were used to minimize the binding of compounds to surfaces; concentrations passing through the perfusion system were verified by absorbance.

[3] = +50 mV, concentration series of FIG. 4 / FIG. 5, read-out: KD values determined from the fit of the equation
[4] = Table 1, +50 mV, mean±SD, not corrected for ion accumulation, read-out: KD(+50)
[5] = Table 1, −50 mV, mean±SD, not corrected for ion accumulation, read-out: KD(−50)
[6] = −50 mV, concentration series of FIG. 4 / FIG. 5, read-out: KD values determined from the fit of the equation

heteromeric rod CNG channels consisting of CNGA1 and CNGB1 subunits, sequence (Q00194 whole entry): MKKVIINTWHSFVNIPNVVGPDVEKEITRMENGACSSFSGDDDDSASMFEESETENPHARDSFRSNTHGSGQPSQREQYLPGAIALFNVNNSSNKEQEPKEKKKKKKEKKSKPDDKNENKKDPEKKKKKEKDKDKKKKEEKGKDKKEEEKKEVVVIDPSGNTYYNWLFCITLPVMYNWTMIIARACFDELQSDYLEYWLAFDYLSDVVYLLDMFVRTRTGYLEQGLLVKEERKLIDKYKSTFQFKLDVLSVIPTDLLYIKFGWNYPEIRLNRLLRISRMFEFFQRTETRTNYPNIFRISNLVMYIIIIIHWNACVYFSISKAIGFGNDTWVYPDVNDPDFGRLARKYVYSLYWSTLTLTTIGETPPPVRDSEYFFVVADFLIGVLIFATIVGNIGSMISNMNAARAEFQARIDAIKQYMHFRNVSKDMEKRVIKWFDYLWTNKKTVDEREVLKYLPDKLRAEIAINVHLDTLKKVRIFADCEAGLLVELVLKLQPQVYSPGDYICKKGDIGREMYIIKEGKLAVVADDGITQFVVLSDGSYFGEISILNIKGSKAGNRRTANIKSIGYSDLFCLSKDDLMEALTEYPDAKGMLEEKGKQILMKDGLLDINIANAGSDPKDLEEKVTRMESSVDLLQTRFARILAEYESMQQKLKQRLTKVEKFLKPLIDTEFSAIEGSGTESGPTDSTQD
heteromeric rod CNG channels consisting of CNGA1 and CNGB1 subunits, sequence (Q28181 whole entry): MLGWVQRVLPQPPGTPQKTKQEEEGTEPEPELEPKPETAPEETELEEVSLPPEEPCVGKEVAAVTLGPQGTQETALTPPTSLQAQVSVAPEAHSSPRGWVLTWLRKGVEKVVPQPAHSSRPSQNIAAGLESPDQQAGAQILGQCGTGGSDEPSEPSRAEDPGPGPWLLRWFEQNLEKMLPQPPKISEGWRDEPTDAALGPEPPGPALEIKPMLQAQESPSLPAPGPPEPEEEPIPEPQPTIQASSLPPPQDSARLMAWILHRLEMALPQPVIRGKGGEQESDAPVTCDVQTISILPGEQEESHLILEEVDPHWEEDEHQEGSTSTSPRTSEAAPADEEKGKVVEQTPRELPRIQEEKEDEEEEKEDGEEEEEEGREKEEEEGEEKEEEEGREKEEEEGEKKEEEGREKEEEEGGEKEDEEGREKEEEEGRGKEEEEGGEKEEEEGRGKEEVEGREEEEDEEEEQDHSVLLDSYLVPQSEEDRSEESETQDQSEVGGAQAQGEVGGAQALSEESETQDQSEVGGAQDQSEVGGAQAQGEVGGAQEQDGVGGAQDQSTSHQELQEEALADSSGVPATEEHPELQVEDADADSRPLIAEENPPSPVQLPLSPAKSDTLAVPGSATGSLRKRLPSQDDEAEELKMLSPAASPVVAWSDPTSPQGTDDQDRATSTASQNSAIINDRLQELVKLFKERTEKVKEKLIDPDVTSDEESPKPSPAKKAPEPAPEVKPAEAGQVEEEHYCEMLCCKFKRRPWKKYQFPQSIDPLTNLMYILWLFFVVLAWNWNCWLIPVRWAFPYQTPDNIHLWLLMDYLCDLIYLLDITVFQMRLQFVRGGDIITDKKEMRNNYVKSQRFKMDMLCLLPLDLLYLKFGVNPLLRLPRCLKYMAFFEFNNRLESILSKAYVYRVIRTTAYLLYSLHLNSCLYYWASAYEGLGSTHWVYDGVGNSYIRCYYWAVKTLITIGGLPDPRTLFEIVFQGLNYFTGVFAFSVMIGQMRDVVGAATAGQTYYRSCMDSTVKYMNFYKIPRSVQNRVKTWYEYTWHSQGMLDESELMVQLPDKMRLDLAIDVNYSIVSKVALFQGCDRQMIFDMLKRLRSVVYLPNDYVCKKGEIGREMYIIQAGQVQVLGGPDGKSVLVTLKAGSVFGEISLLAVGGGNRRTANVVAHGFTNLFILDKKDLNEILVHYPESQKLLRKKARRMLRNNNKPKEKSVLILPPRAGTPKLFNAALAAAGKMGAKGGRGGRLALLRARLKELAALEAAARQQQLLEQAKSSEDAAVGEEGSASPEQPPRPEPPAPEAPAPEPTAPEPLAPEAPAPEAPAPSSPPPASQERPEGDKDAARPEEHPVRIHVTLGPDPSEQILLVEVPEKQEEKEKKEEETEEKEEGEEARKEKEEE
T1 sequence (P06276 29-602): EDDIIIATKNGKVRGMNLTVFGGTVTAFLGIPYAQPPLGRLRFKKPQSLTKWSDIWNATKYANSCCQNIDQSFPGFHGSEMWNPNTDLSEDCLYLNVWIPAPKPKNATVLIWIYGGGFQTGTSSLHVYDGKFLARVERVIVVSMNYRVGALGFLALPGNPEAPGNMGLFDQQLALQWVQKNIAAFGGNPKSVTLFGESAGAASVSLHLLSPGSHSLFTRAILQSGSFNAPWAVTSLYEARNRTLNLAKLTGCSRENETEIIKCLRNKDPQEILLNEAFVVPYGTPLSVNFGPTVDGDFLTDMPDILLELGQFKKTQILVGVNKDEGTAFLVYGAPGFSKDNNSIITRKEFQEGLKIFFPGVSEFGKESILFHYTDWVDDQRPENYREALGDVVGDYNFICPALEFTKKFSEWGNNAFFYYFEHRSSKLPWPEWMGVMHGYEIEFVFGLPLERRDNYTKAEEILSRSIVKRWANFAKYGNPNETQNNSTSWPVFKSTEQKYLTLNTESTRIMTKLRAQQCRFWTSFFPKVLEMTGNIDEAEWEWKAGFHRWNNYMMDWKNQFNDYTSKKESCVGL

SMILES	Hydrolysis rate ([1]; 50 μM compound, 0.1M phosphate buffer pH 7.4, 37° C., mean±SD of triplicate) [nmol/min/mg]	voltage dependence of block [2]	Kd [2, 3] [µM]	Kd [2, 4] [µM]	Kd [2, 5] [µM]	Kd ([2]; octyl series table, +50 mV, read-out: KD(+50)) [µM]	Kd ([2]; octyl series table, −50 mV, read-out: KD(−50)) [µM]	Kd [2, 6] [µM]	hydrolysis product after incubation with butyrylcholinesterase [1]
CCCCCCCCNc1ccc(C(=O)OCCN(C)C)cc1 [Compound 5, 2-(Dimethylamino)ethyl 4-(Octylamino)benzoate, reference compound]	213 ± 31	appreciably less voltage dependent than compound 1, 6, and 8	1.5	1 ± 0.6	2.4 ± 1.4	0.8 ± 0.5	1.72 ± 1.38	1.8	
CCCCNc1ccc(C(=S)NCCN(C)C)cc1 [Compound 8, 4-(Butylamino)-N-(2-(dimethylamino)ethyl)benzothioamide]			0.5	0.6 ± 0.3	3.9 ± 1.8			3.7	no hydrolysis product was detected
CCCCCCCCNc1ccc(C(=S)NCCN(C)C)cc1 [Compound 9, 4-(Octylamino)-N-(2-(dimethylamino)ethyl)benzothioamide]		appreciably less voltage dependent than compound 1, 6, and 8	1.3	0.7 ± 0.5				1.8	no hydrolysis product was detected
